Results: patent publication US5462861A, “Method for improving enzyme activities with noble gases” (American Air Liquide, Chicago Research Center, priority 1993, dated 1995)

Experiments:
β-D-Glucosidase = assay: High pressure experiments, β-D-glucosidase; assay type: biochemical, Almonds
Description: Experiments were conducted in pressure cells pressurized with additional test gas after solution was already saturated, at 2 atmospheres or at 3 atmospheres in real-time, or after pressurizing in a 1-liter cylinder for 1 hour or ~24 hours at 30.6 atmospheres and at 100 atmospheres.
Rinse the cylinders with copious quantities of D.I. H2 O. Then rinse the cylinders with the second enzyme solution (glucosidase). Place a 25 ml aliquot of enzyme solution into each of 2 disposable gas cylinders. Shake the enzyme in each cylinder for several minutes and then remove a 5 ml sample for Control B and Control C.
Remove cylinders to the dock, gassing with the appropriate gas; bring pressure slowly up to 30.6 atm. Let sit at the required pressure for 60 minutes. Slowly depressurize to 2 psi before bringing into the lab.
Bring the cylinders back to the dock and repressurize to 100 atm with the appropriate gas. Let sit at the required pressure for 60 minutes. Slowly depressurize to 2 psi before bringing into the lab.
Cuvettes were filled for the 2 atm experiments for both enzymes. Each cuvette was gassed 10×10 cc with the appropriate gas and refrigerated for 15 minutes prior to running. Serum vials were filled with 5 cc of the corresponding enzyme and gassed with 10×10 cc of the appropriate gas prior to running. The spectrophotometers were set up such that a continuous flow of each gas could be delivered to each spectro at all times. A 100 psimax gauge was installed to read the cuvette pressure and 2 on/off valves were installed so that the reference cell could be pressurized during the second replicate. A ball valve was installed between the cylinder/house line and the gauge so that gas flow could be controlled directly at the spectrophotometers. A check valve was placed in each line to ensure that a back pressure would not cause contamination of the house lines or the gas cylinders. The cuvettes retained the 2 needles during the entire run. One of the needles was attached to the gas line while the second was used for enzyme introduction and then plugged. Due to the bulky nature of the assembly it was impossible to use the installed doors of the spectrophotometers therefore they were removed. A 4-layer thick black felt cover was prepared for each spectro to minimize the amount of light entering the system.
While the cuvette was equilibrating to temperature in the spectrophotometer both needles remained in the cuvette with 10 cc syringes still attached. Prior to enzyme introduction one of the syringes was removed while the gas line was attached to the needle. A small flow of gas run through the line while this was done to ensure that there was no oxygen contamination. The needles remained above the liquid level. The second syringe was removed to allow constant flow through the cuvette. The enzyme was injected through the second needle using a 1 cc syringe. The needle was then plugged, the cuvette pressurized and the run begun.
A nonpressurized gas run using all four gases was done for each enzyme. Each cuvette was gassed with 10×10 cc of the corresponding gas and refrigerated for 15 minutes. The 2 needles used for gassing the cuvettes were removed when the cuvettes were placed into the spectrophotometer. Enzyme was introduced into the cuvettes using a 1 cc syringe with a 20G11/2 needle attached. The needle was placed into the cuvette through the silicone plug but not immersed into the liquid. This was to ensure that enzyme introduction into the cuvette was the same as for the pressurized gas run.
The same method as used in Trial 2 on Apr. 30, 1991 was used for this trial.
At 3 atmospheres pressure, the degree of enhancement observed was changed as follows: […]

citrate synthetase = biological target: T1, citrate synthetase (Homo sapiens, UniProt O75390); assay: Citrate synthetase complex reaction under gas; assay type: biochemical; details: for effect on citrate synthase: FIG. 33
T1 sequence (O75390 28-466): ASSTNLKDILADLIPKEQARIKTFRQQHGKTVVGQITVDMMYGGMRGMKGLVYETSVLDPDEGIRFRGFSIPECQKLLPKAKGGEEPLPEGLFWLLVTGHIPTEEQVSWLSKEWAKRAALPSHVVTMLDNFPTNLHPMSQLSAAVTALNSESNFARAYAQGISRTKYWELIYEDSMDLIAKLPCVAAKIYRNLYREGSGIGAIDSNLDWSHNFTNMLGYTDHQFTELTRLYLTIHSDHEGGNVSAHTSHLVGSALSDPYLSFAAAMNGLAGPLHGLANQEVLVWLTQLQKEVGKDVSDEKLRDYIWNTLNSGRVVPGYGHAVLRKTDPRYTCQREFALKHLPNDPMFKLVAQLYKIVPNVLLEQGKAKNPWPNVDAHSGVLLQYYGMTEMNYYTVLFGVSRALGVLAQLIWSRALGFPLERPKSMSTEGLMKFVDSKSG
Description: Solution preparation: Optimized w/v solutions are prepared by diluting the enzyme (units/ml) and the substrate (μg/ml) in appropriate buffer (optimized pH and molarity for enzymes). The solutions are used for gas experiments at once to avoid loss of activity. Various enzyme and substrate concentrations and inhibitors may be employed. Physical parameters are varied as required.
Preparation of samples: Cuvets are filled with 2 ml of substrate solution by means of a gas-tight syringe. Gas-tight serum vials are filled with enzyme and solvent. Sufficient gas is consecutively bubbled in the cuvets and serum vials, with a 1-hr wait between injections to maximize equilibration of gas. All syringes and dead spaces are purged before filling with the appropriate gas. The amount of gas used has been measured sufficient to saturate the solution required.
Spectrophotometric time-drive, reaction rate, and kinetic analyses: cuvets and serum vials are saturated with gas 40 minutes before the run. A gas-filled syringe is used to retrieve 0.5 ml of enzyme solution to avoid air contact. The 0.5 ml syringe injections of enzyme are made simultaneously to effect a common starting time to for the samples. 7 gases (air, O2, N2, Ne, Ar, Kr, Xe) are run at various temperatures each (from 0° to 60° ). Changes in the rate or final equilibrium of the reaction versus ambient air are recorded. Comparison is also made with added oxygen, and with deoxygenation. Some samples are also prepared under pressure.
In a complete experiment, an enzyme at optimal pH and buffering salt concentration is reacted with 5 substrate concentrations in solution with noble gas at 1 atm. […] Controls are also run after evacuation of solution by vacuum. The reaction is monitored colorimetrically in a scanning spectrophotometer in real time, and the signals are treated mathematically to obtain rate and yield differences. Sample numbers are constant and sufficient to ensure significance of results. All parameters are independently controlled and measured, and more complex experiments are occasionally carried out.

Tyrosinase = assay: Gas mixture experiment, tyrosinase; assay type: biochemical, Mushroom; details: inhibition vs. air control, 25° C.
Description: In addition to mixes of noble gases with nitrogen and oxygen, and of mixes of Kr and Xe, serial mixes of Ar and either Xe or Kr were tested. Results for tyrosinase expressed as inhibition vs. air control: Apr. 18, 1991: Gas mix prep: 120 cc serum vials were used to mix the gassed in. These vials were purged using vacuum while 1 atm of argon was maintained in the vial. The vials were purged for 20 seconds in this manner. The vials were under slight pressure which was released through a needle. This is considered 120 cc of Argon. The necessary volumes of Argon and the gas to be mixed with (Xe or Kr) were then introduced into the vials using a 30 cc syringe and needle. We gassed the enzyme using 1 vial of gas mix using 8×10 cc of gas out of the vial. We gassed the cuvette/substrate using a second vial of gas mix using 8×10 cc of gas out of the vial. Argon and Xenon were retrieved from the gas cylinders. […] We determined that we would be unable to retrieve 8×10 cc of gas mix from 1 vial. […] We prepared the Ar/Kr mixes as described above and did 2 replicates of the 10% and 50% mixes.

[1] = at 3 atmospheres pressure (value after the > sign), minus = inhibition
[2] = before pressurization (value before the > sign)

| SMILES | degree of enhancement observed (β-D-Glucosidase; [1]) | degree of enhancement observed (β-D-Glucosidase; [2]) | effect on citrate synthetase complex reaction (citrate synthetase; 10° C.) | effect on citrate synthetase complex reaction (citrate synthetase; 25° C.) | effect on citrate synthetase complex reaction (citrate synthetase; 35° C.) | effect on citrate synthase (citrate synthetase) | % inhibited (Tyrosinase; Mix = % Kr in Ar) [%] | % inhibited (Tyrosinase; Mix = % Xe in AR) [%] | effect on β-glucosidase (β-D-Glucosidase; 30 atm. pressure, FIG. 38) | effect on β-glucosidase (β-D-Glucosidase; 100 atm. pressure, 25° C., FIG. 37) |
| --- | --- | --- | --- | --- | --- | --- | --- | --- | --- | --- |
| [Kr] [Kr, krypton] | -6.2 | +2.0 | +37 | +6 | +32 | enhancement | -77 |  |  |  |
| [Ar] [Ar, argon] | -13.2 | +1.0 | +25 | -10 | -15 | inhibition | -75 | -75 |  |  |
| N#N [N2, nitrogen, reference compound] | -5.0 | 0 | -6 | -25 | -17 |  |  |  | inhibitory effect | inhibitory effect |
| [Ne] [Ne, neon] | -12.5 | +1.0 | +11 | +9 | -14 |  |  |  |  |  |
| [Xe] [Xe, xenon] | -15.7 | +3.1 | +18 | 0 | +32 | enhancement |  | -86 |  |  |
